In the oligonucleotide strings, read from the 5' end, every base follows the letter of its sugar. An asterisk marks phosphorothioate; unmarked linkages are phosphodiester. Other units and linkages are bracketed, terminal groups are in braces. A string of capitals states the bases alone. e = 2'-O-(2-methoxyethyl) (MOE); [5mC] = 5-methylcytosine; d = 2'-deoxy (DNA)

The subject of this data set is human growth hormone receptor mRNA. Nature of the data set: Inhibition of human growth hormone receptor mRNA levels in MCF7 cells, quantitative real-time PCR. The class given is cell-based. Also noted: concentration or dose not given beside the values. Particulars: averages from three experiments. As to the method:
The human breast carcinoma cell line MCF-7 was obtained from the American Type Culture Collection (Manassas, Va.). MCF-7 cells were routinely cultured in DMEM low glucose (Gibco/Life Technologies, Gaithersburg, Md.) supplemented with 10% fetal calf serum (Gibco/Life Technologies, Gaithersburg, Md.). Cells were routinely passaged by trypsinization and dilution when they reached 90% confluence. Cells were seeded into 96-well plates (Falcon-Primaria #3872) at a density of 7000 cells/well for use in RT-PCR analysis.
When cells reached 65-75% confluency, they were treated with oligonucleotide. For cells grown in 96-well plates, wells were washed once with 100 μL OPTI-MEM™-1 reduced-serum medium (Invitrogen Corporation, Carlsbad, Calif.) and then treated with 130 μL of OPTI-MEM™-1 containing 3.75 μg/mL LIPOFECTIN™ (Invitrogen Corporation, Carlsbad, Calif.) and the desired concentration of oligonucleotide. Cells are treated and data are obtained in triplicate. After 4-7 hours of treatment at 37° C., the medium was replaced with fresh medium. Cells were harvested 16-24 hours after oligonucleotide treatment.
Total RNA was isolated using an RNEASY 96™ kit and buffers purchased from Qiagen Inc. (Valencia, Calif.) following the manufacturer's recommended procedures. Briefly, for cells grown on 96-well plates, growth medium was removed from the cells and each well was washed with 200 μL cold PBS. 150 μL Buffer RLT was added to each well and the plate vigorously agitated for 20 seconds. 150 μL of 70% ethanol was then added to each well and the contents mixed by pipetting three times up and down. The samples were then transferred to the RNEASY 96™ well plate attached to a QIAVAC™ manifold fitted with a waste collection tray and attached to a vacuum source. Vacuum was applied for 1 minute. 500 μL of Buffer RW1 was added to each well of the RNEASY 96™ plate and incubated for 15 minutes and the vacuum was again applied for 1 minute. An additional 500 μL of Buffer RW1 was added to each well of the RNEASY 96™ plate and the vacuum was applied for 2 minutes. 1 mL of Buffer RPE was then added to each well of the RNEASY 96™ plate and the vacuum applied for a period of 90 seconds. The Buffer RPE wash was then repeated and the vacuum was applied for an additional 3 minutes. The plate was then removed from the QIAVAC™ manifold and blotted dry on paper towels. The plate was then re-attached to the QIAVAC™ manifold fitted with a collection tube rack containing 1.2 mL collection tubes. RNA was then eluted by pipetting 140 μL of RNAse free water into each well, incubating 1 minute, and then applying the vacuum for 3 minutes.
Quantitation of growth hormone receptor mRNA levels was accomplished by real-time quantitative PCR using the ABI PRISM™ 7600, 7700, or 7900 Sequence Detection System (PE-Applied Biosystems, Foster City, Calif.) according to manufacturer's instructions. This is a closed-tube, non-gel-based, fluorescence detection system which allows high-throughput quantitation of polymerase chain reaction (PCR) products in real-time. As opposed to standard PCR in which amplification products are quantitated after the PCR is completed, products in real-time quantitative PCR are quantitated as they accumulate. This is accomplished by including in the PCR reaction an oligonucleotide probe that anneals specifically between the forward and reverse PCR primers, and contains two fluorescent dyes. A reporter dye (e.g., FAM or JOE, obtained from either PE-Applied Biosystems, Foster City, Calif., Operon Technologies Inc., Alameda, Calif. or Integrated DNA Technologies Inc., Coralville, Iowa) is attached to the 5′ end of the probe and a quencher dye (e.g., TAMRA, obtained from either PE-Applied Biosystems, Foster City, Calif., Operon Technologies Inc., Alameda, Calif. or Integrated DNA Technologies Inc., Coralville, Iowa) is attached to the 3′ end of the probe. When the probe and dyes are intact, reporter dye emission is quenched by the proximity of the 3′ quencher dye. […]
Turning to “227483 (antisense eA*eG*eG*e[5mC]*eT*dT*dT*d[5mC]*dT*dG*dT*dG*dG*dT*dG*eA*eT*eG*eT*eA) [compound 227483]”, the “% INHIB” value was 75%.

For “272355 (antisense eT*eT*eG*eA*eG*dT*dG*dT*dT*d[5mC]*d[5mC]*dT*dA*dA*dA*eA*eT*eG*eA*eA) [compound 272355]”, the “% INHIB” value is given as 24%.

Take “272347 (antisense eT*e[5mC]*eT*eA*e[5mC]*dA*d[5mC]*dT*dG*dA*dT*dG*dA*dT*dA*e[5mC]*eT*eT*eT*eA) [compound 272347]”: the “% INHIB” value stood at 62%.

On to “272305 (antisense eT*eT*eG*eT*e[5mC]*dT*dT*dT*dA*dG*dG*d[5mC]*d[5mC]*dT*dG*eG*eA*eT*eT*eA) [compound 272305]”, for which the “% INHIB” value came to 68%.

As for “272345 (antisense e[5mC]*eA*eT*e[5mC]*eT*dA*dT*dT*dA*d[5mC]*dA*dA*dA*dT*dA*eA*e[5mC]*eA*eT*eG) [compound 272345]”, the “% INHIB” value amounted to 24%.

In the case of “272323 (antisense eT*eG*eT*eG*eT*d[5mC]*dT*dG*dA*dT*dT*d[5mC]*d[5mC]*dT*d[5mC]*eA*eG*eT*e[5mC]*eT) [compound 272323]”, the “% INHIB” value was 67%.

Take “227482 (antisense eT*eT*e[5mC]*eT*eG*dT*dG*dG*dT*dG*dA*dT*dG*dT*dA*eA*eA*eT*eG*eT) [compound 227482]”: the “% INHIB” value was found to be 53%.

As to “272341 (antisense eG*eA*eG*eG*e[5mC]*dT*dA*dT*dA*dG*dA*dT*d[5mC]*dT*dT*eA*eT*e[5mC]*eT*e[5mC]) [compound 272341]”, the “% INHIB” value worked out at 65%.

In the case of “272327 (antisense eG*eG*eA*e[5mC]*eA*dT*d[5mC]*d[5mC]*d[5mC]*dT*dG*d[5mC]*d[5mC]*dT*dT*eA*eT*eT*e[5mC]*eT) [compound 272327]”, the “% INHIB” value amounted to 60%.

In the case of “227502 (antisense eG*eA*eT*eT*eG*dA*dG*dG*dT*dA*dT*dT*dT*dA*dG*e[5mC]*eT*eA*eT*eT) [compound 227502]”, the “% INHIB” value is reported as 56%.

For “272324 (antisense eT*eA*eT*eG*eT*d[5mC]*dA*dT*dT*dG*dG*d[5mC]*dA*dT*dT*eG*eA*eA*eA*eT) [compound 272324]”, the “% INHIB” value is 53%.

Consider “272349 (antisense eA*eG*eT*e[5mC]*eT*dT*d[5mC]*d[5mC]*dA*dA*dA*d[5mC]*dA*d[5mC]*dA*e[5mC]*eA*eG*e[5mC]*eT) [compound 272349]”, for which the “% INHIB” value is given as 68%.

“227464 (antisense e[5mC]*e[5mC]*eT*eT*eT*dA*dA*dT*d[5mC]*dT*dT*dT*dG*dG*dA*eA*e[5mC]*eT*eG*eG) [compound 227464]”: the “% INHIB” value turned out to be 58%.

For “272336 (antisense e[5mC]*eA*eA*eT*e[5mC]*dA*d[5mC]*dT*dG*d[5mC]*dT*dA*d[5mC]*dT*dA*eA*eA*e[5mC]*eA*eG) [compound 272336]”, the “% INHIB” value is on record as 69%.

In the case of “272319 (antisense eA*eT*eT*eT*eT*d[5mC]*d[5mC]*dT*dT*d[5mC]*d[5mC]*dT*dT*dG*dA*eG*eG*eA*eG*eA) [compound 272319]”, the “% INHIB” value was 67%.

As for “272317 (antisense eA*eG*e[5mC]*e[5mC]*e[5mC]*dA*dA*dA*dT*dA*dT*dT*d[5mC]*d[5mC]*dA*eA*eA*eG*eA*eT) [compound 272317]”, the “% INHIB” value came out at 65%.

Take “272334 (antisense eA*eA*eG*eA*eA*dA*dG*dG*d[5mC]*dT*dA*dA*dG*dG*d[5mC]*eA*eT*eG*eA*eT) [compound 272334]”: the “% INHIB” value was 61%.

On to “272359 (antisense eT*e[5mC]*e[5mC]*eA*eA*dA*dT*dA*dT*dT*d[5mC]*dT*dG*dG*dT*eA*e[5mC]*eT*eT*eT) [compound 272359]”, for which the “% INHIB” value is listed as 72%.

As to “272360 (antisense eT*eA*eT*eT*eA*dG*dT*dT*dA*d[5mC]*d[5mC]*dT*dT*dG*dA*eG*eG*eA*eG*eA) [compound 272360]”, the “% INHIB” value was found to be 0%.

For the substance “272353 (antisense eA*eT*eA*eA*eT*dG*dG*d[5mC]*dT*dT*dA*dT*dG*dT*dG*eG*e[5mC]*e[5mC]*eA*e[5mC]) [compound 272353]”, the “% INHIB” value was 72%.

On to “227453 (antisense e[5mC]*eA*eT*eA*eA*dT*d[5mC]*dA*dG*dG*dG*d[5mC]*dA*dT*dT*e[5mC]*eT*eT*eT*e[5mC]) [compound 227453]”, for which the “% INHIB” value was determined as 52%.

In the case of “272352 (antisense e[5mC]*e[5mC]*eA*eA*eA*dA*dT*dG*dA*d[5mC]*dA*dT*dT*d[5mC]*dT*eG*eA*eG*eA*e[5mC]) [compound 272352]”, the “% INHIB” value was determined as 77%.

On to “272344 (antisense eA*e[5mC]*eA*e[5mC]*eT*d[5mC]*dA*dA*dT*dT*d[5mC]*dT*dA*dG*d[5mC]*eT*eT*eT*eT*e[5mC]) [compound 272344]”, for which the “% INHIB” value is on record as 60%.

For the substance “227484 (antisense eT*eG*eG*eT*eA*dA*dG*dG*d[5mC]*dT*dT*dT*d[5mC]*dT*dG*eT*eG*eG*eT*eG) [compound 227484]”, the “% INHIB” value is given as 63%.

“227499 (antisense eT*eA*eT*eA*eA*dA*dA*dG*dG*dG*d[5mC]*dT*dT*dT*dG*eT*eA*eA*eA*eA) [compound 227499]”: the “% INHIB” value was 14%.

As to “272315 (antisense e[5mC]*eA*eA*eT*eG*dA*dG*dT*dA*d[5mC]*dA*d[5mC]*dT*dG*dG*eA*eA*e[5mC]*eT*eG) [compound 272315]”, the “% INHIB” value is 53%.

With “272332 (antisense e[5mC]*eT*e[5mC]*eT*eT*dT*dG*dT*d[5mC]*dA*dG*dG*d[5mC]*dA*dA*eG*eG*eG*e[5mC]*eA) [compound 272332]”, the “% INHIB” value is listed as 75%.

“272320 (antisense eA*eG*eA*eT*eT*dG*dT*dG*dT*dT*d[5mC]*dA*d[5mC]*d[5mC]*dT*e[5mC]*e[5mC]*eT*e[5mC]*eT) [compound 272320]”: the “% INHIB” value worked out at 70%.

For the substance “272339 (antisense eG*eT*eT*eT*eT*dA*d[5mC]*dA*dT*dA*dT*d[5mC]*d[5mC]*dA*dA*eA*e[5mC]*eT*eA*eT) [compound 272339]”, the “% INHIB” value is on record as 72%.

Regarding “227452 (antisense eT*e[5mC]*eA*eG*eG*dG*d[5mC]*dA*dT*dT*d[5mC]*dT*dT*dT*d[5mC]*e[5mC]*eA*eT*eT*e[5mC]) [compound 227452]”, the “% INHIB” value worked out at 79%.

For the substance “272335 (antisense eA*eA*eA*eT*eA*d[5mC]*dG*dT*dA*dG*d[5mC]*dT*d[5mC]*dT*dT*eG*eG*eG*eA*eA) [compound 272335]”, the “% INHIB” value came to 47%.

In the case of “272328 (antisense eG*eG*e[5mC]*eA*eT*dT*dG*dT*d[5mC]*d[5mC]*dA*dT*dA*dA*dG*eG*eA*eA*eG*eT) [compound 272328]”, the “% INHIB” value was 85%.

For “272310 (antisense eT*eT*eT*e[5mC]*eA*dT*d[5mC]*d[5mC]*dA*d[5mC]*dT*dG*dT*dA*d[5mC]*e[5mC]*eA*e[5mC]*e[5mC]*eA) [compound 272310]”, the “% INHIB” value is given as 76%.

“272361 (antisense eA*eT*eT*eT*eT*d[5mC]*d[5mC]*dT*dT*d[5mC]*d[5mC]*dT*dA*dG*dA*eA*eA*eA*eT*eA) [compound 272361]”: the “% INHIB” value is listed as 10%.

Take “272321 (antisense eA*eA*e[5mC]*e[5mC]*e[5mC]*dA*dA*dG*dA*dG*dT*d[5mC]*dA*dT*d[5mC]*eA*e[5mC]*eT*eG*eT) [compound 272321]”: the “% INHIB” value was 64%.

Take “272330 (antisense eG*eA*eT*eG*e[5mC]*dA*d[5mC]*dT*dT*dT*dT*dT*dG*dG*d[5mC]*eA*eT*e[5mC]*eT*eG) [compound 272330]”: the “% INHIB” value worked out at 47%.

The record behind these values is patent publication US8637484B2, “Modulation of growth hormone receptor expression and insulin-like growth factor expression” (Antisense Therapeutic Limited, priority 2003, dated 2014).
